Patent publication US20210069120A1, “COMPOSITE NANOPARTICLE, PREPARATION METHOD THEREOF AND PREPARATION METHOD OF COMPOSITE NANO PREPARATION USING THEREOF” (JINAN UNIVERSITY, priority 2018, published 2021)

Tests used:
MDA-MB-231 cells [1] = assay: Apoptosis of MDA-MB-231 cells detected by flow cytometry (Annexin V-FITC/PI); type: cell-based, human
Method: After Blank PLN, PTX, PSO, I-PSO, PTX+PSO+I-PSO and (PTX+PSO+I-PSO)-PLN were used to act on the MDA-MB-231 cells respectively, a blank control without drug treatment was set at the same time. Cells were collected, an Annexin V-FITC buffer solution and a propidium iodide (PI) staining solution were added respectively, and cell apoptosis was detected by a flow cytometry, wherein green fluorescence was Annexin V-FITC, and red fluorescence was PI. Annexin V-FITC/PI double staining was dominant in late apoptotic cells and dead cells which referred to an upper right region on a flow cytometry diagram, while AnnexinV-FITC staining was dominant in early apoptotic cells which referred to a lower right region on the flow cytometry diagram. The experiment was repeated for three times.

MDA-MB-231 cells [2] = assay: MTT proliferation inhibition / toxicity on MDA-MB-231; type: cell-based, human; conditions: 48 hours, concentration range of 0.39 to 100 μmol/L
Method: 4×10^3 MDA-MB-231 cells/well were inoculated into a 96-well plate with a concentration of 100 μL/well, and cultured in a 5% CO2 cell incubator at 37° C. for 24 hours, then a supernatant was removed after 24 hours, and 200 μL of drug-containing medium was added. The final concentrations of the PTX added to the MDA-MB-231 cells were 0.0039 μmol/L, 0.0078 μmol/L, 0.0156 μmol/L, 0.03125 μmol/L, 0.0625 μmol/L, 0.125 μmol/L, 0.25 μmol/L, 0.5 μmol/L and 1 μmol/L. At the same time, a control group (the same amount of culture fluid was added) and a blank zeroing group were set up. Each well was provided with 6 multiple wells and placed in a CO2 incubator for continuous cultivation for 48 hours. […] An OD value was measured at 570 nm of an enzyme reader. […]
(§1) 4×10^3 MDA-MB-231 cells/well were inoculated into a 96-well plate with a concentration of 100 μL/well, and cultured in a 5% CO2 cell incubator at 37° C. for 24 hours, then a supernatant was removed after 24 hours, and 200 μL of drug-containing medium was added. […] An OD value was measured at 570 nm of an enzyme reader. […]
as §1

Row | Compound | Apoptosis rate (%) of MDA-MB-231 cells (MDA-MB-231 cells [1]) | toxicity to the MDA-MB-231 cells (cell viability) (MDA-MB-231 cells [2])
1 | O=c1ccc2ccc3occc3c2o1 [I-PSO, isopsoralen] | 11.5% | –
2 | O=c1ccc2cc3ccoc3cc2o1 [PSO, psoralen] | 13.8% | no obvious toxicity
3 | CC(=O)O[C@H]1C(=O)[C@@]2(C)[C@H]([C@H](OC(=O)c3ccccc3)[C@]3(O)C[C@H](OC(=O)[C@H](O)[C@@H](NC(=O)c4ccccc4)c4ccccc4)C(C)=C1C3(C)C)[C@]1(OC(C)=O)CO[C@@H]1C[C@@H]2O [PTX, paclitaxel] | 15.1% | –
